A short description of this series: Moisture sorption/desorption isotherm measurement (DVS). The format is physicochemical. The conditions noted are these: for change in mass when the humidity was changed (DVS): 0% to 95% RH, 25° C. Here is the method: About 15 to 25 mg of a sample was weighed into a sample pan, and measurement was made. Measurement conditions are as follows. • Device: DVS Adventure manufactured by Surface Measurement Systems Ltd. • Measurement points: 0% to 95% RH every 5%, and 95% RH to 0% every 5% • Temperature: 25° C.
Regarding the comparison of the X-ray powder analysis patterns before and after the DVS measurement, measurement was performed by the following method.
• Measuring method: reflection method • Wavelength used: CuKα ray • Tube current: 200 mA • Tube voltage: 45 kV • Sampling plate: aluminum • X-ray incident angle: 2.5° • Sampling width: 0.02° • Detector: HyPix-3000 (two-dimensional detection mode)

`Cn1cnc(Cn2c(=O)[nH]/c(=N\c3cc4cn(C)nc4cc3Cl)n(Cc3cc(F)c(F)cc3F)c2=O)n1`: the “change in mass when the humidity was changed (DVS)” value by setting is: (crystal of Example a (FIG. 6)) “No substantial change in mass”; (crystal of Step 5-2 of Example 1b (FIG. 18)) “No substantial change in mass”. The “crystalline form before and after the DVS measurement (X-ray powder patterns)” value (crystal of Step 5-2 of Example 1b (FIG. 19)) is given as “did not change”.
